# Reference: patent publication US20080194024A1, “Culture of Non-Embryonic Cells at High Cell Density” (priority 2005, published 2008)
# Read-outs that look alike come from different tables or passages of the source.
# How the values were obtained:
# GSK-3 = details: study cited did not specify which isoform(s) was tested; value marked a: L. Meijer et al., unpublished; read-out: IC50 GSK-α and GSK-3β, isoform not specified; cited from earlier work
# CDK1-cyclin B complex = details: cited from earlier work; for IC50: values marked a: L. Meijer et al., unpublished
# CDK2 and CDK5 = details: printed in the CDK1-cyclin B column with note (CDK2 and CDK5); cited from earlier work
# Murine MAPCs [1] = test: MAPC culture with BIO, morphology (clustering); assay type: cell-based, mouse; details: 0.1-2 microM BIO; from 4 days after treatment; at both cell densities
# Murine MAPCs [2] = test: Quantitative RT-PCR of MAPCs treated with BIO; assay type: cell-based, mouse
# Murine MAPCs [3] = test: Immunohistochemistry of MAPCs treated with BIO; assay type: cell-based, mouse
# [4] = system: mouse embryonic stem (ES) cells; details: substitutes for feeder cultures or exogenous cytokines; expression of Oct-3a, Rex-1 and Nanog; cited from earlier work
# [5] = system: human embryonic stem (ES) cells; details: substitutes for feeder cultures or exogenous cytokines; expression of Oct-3a, Rex-1 and Nanog; cited from earlier work
# [6] = system: GSK-3 (α/β) mixture of isoforms; details: cited from earlier work
# GSK-3β = GSK-3β (Homo sapiens, UniProt P49841)
# Sequence of GSK-3β (P49841 whole entry, species assumed): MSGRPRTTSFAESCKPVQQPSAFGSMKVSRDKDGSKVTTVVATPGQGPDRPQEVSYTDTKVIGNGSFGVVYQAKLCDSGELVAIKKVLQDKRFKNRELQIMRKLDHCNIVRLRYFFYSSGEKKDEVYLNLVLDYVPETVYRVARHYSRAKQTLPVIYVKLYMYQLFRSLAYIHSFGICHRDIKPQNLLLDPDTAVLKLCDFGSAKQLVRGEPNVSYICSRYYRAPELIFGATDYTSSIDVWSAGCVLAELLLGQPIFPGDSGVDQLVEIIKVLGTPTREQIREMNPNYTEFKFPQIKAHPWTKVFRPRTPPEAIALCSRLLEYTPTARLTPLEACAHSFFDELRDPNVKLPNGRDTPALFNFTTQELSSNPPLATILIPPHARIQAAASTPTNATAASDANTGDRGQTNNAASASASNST
# [7] = system: mouse mesodermal stem cell line differentiated into a myoblastic lineage; details: Chen, S., et al. (2003); cited from earlier work
# GSK-3α = GSK-3α (Homo sapiens, UniProt P49840); details: cited from earlier work
# Sequence of GSK-3α (P49840 whole entry, species assumed): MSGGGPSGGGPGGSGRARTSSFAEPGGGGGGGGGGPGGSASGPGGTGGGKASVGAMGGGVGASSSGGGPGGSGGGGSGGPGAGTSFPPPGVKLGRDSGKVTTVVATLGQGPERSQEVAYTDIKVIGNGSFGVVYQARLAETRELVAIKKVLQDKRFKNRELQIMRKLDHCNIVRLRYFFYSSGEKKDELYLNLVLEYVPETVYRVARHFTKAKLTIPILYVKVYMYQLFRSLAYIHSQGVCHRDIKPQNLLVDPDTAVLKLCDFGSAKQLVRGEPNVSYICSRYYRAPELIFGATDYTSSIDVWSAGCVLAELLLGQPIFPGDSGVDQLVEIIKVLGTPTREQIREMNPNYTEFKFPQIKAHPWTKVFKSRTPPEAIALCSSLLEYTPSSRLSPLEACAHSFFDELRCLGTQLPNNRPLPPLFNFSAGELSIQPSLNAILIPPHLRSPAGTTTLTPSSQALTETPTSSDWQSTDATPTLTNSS
# [8] = MAPCs maintained at low density
# [9] = high concentration of BIO, MAPCs maintained at low density
# [10] = mixture of isoforms tested, values marked a: L. Meijer et al., unpublished
compound,measurement,setting,value
CC(=O)ON=C1C(=C2C(=O)Nc3cc(Br)ccc32)Nc2ccccc21 [6-Bromoindirubin-3′-acetoxime],IC50,GSK-3,10 nM
same,IC50,CDK1-cyclin B complex,63000 nM
COc1ccc(CNC(=O)Nc2ncc([N+](=O)[O-])s2)cc1 [ARA014418],IC50,CDK2 and CDK5,> 100000 nM
O=C1Cc2c([nH]c3ccc(Br)cc23)-c2ncccc2N1 [Azakenpaullone],IC50,CDK1-cyclin B complex,2000 nM
"O=C1Nc2cc(Br)ccc2/C1=C1/Nc2ccccc2/C1=N\O [BIO, 6-bromoindirubin-3′-oxime]",clustering of MAPC,Murine MAPCs [1],dose-dependent clustering
same,Oct-4 mRNA levels,Murine MAPCs [2]; [8],decreased in a BIO dose-dependent manner
same,Rex-1 mRNA levels,Murine MAPCs [2]; [8],decreased in a BIO dose-dependent manner
same,AFP levels,Murine MAPCs [2]; [9],higher levels of AFP
same,Sox1 levels,Murine MAPCs [2]; [9],higher levels
same,"endothelial specific genes (for example, vWF) levels","Murine MAPCs [2]; low concentration of BIO, MAPCs maintained at low density",higher levels of endothelial specific genes
same,UTF1 or E-Ras expression,"Murine MAPCs [2]; mRNA, Q-RT-PCR",did not affect
same,"Oct-4, β-catenin and E-cadherin protein expression in large dense MAPC clusters","Murine MAPCs [3]; high density (ESC densities), 1 or 2 microM BIO",very high levels
same,"Oct-4, β-catenin and E-cadherin protein expression in clusters","Murine MAPCs [3]; low-density MAPCs, 2 microM BIO",highly expressed
same,"maintenance of undifferentiated pluripotent state, mouse ES cells",[4],maintaining the ES cultures in an undifferentiated pluripotent state
same,"maintenance of undifferentiated pluripotent state, human ES cells",[5],maintaining the ES cultures in an undifferentiated pluripotent state
[Be+2] [Beryllium],IC50,GSK-3,6000 nM
same,Effect on CDK1-cyclin B complex,CDK1-cyclin B complex,Inhibits CDK1
OCCCNc1cc(-c2ccnc(Nc3cccc(Cl)c3)n2)ccn1 [CGP60474],IC50,GSK-3,10 nM
CN1CCN(c2cnc(NCCNc3ccc([N+](=O)[O-])c(N)n3)nc2-c2ccc(Cl)cc2Cl)C(=O)C1 [CT20026],IC50,[6]; [10],4 nM
CN1CC[C@H](c2c(O)cc(O)c3c(=O)cc(-c4ccccc4Cl)oc23)[C@H](O)C1 [Flavopiridol],IC50,GSK-3,450 nM
"CN(C)CCCn1cc(C2=C(c3c[nH]c4ccccc34)C(=O)NC2=O)c2ccccc21 [GF109203x, bisindolyl-maleimide I]",IC50,"GSK-3β; β isoform tested; from Meijer, L. et al. (2004); read-out: IC50 GSK-3 (β); cited from earlier work",190 nM
same,IC50,CDK1-cyclin B complex,2300 nM
"Cn1cc(C2=C(c3cn(CCCSC(=N)N)c4ccccc34)C(=O)NC2=O)c2ccccc21 [Ro318220, bisindolyl-maleimide IX]",IC50,"GSK-3β; read-out: IC50 GSK-3 (β); β isoform tested; from Meijer, L. et al. (2004); cited from earlier work",3 to 38 nM
Cn1cc(C2=C(c3ccc(Cl)cc3Cl)C(=O)NC2=O)c2ccccc21 [SB216763],IC50,CDK1-cyclin B complex,550 nM
O=C1NC(=O)C(c2ccccc2[N+](=O)[O-])=C1Nc1ccc(O)c(Cl)c1 [SB415286],IC50,CDK1-cyclin B complex,900 nM
COc1ccc2c(c1)/C(=C/c1cnc[nH]1)C(=O)N2 [SU9516],IC50,GSK-3,330 nM
Cn1sc(=O)n(Cc2ccccc2)c1=O [TDZD8],IC50,[6]; [10],7000 nM
Nc1cccc(-c2cc3c(Oc4cccc(O)c4)ncnc3[nH]2)c1 [TWS119],IC50,GSK-3β; read-out: IC50 GSK-3 (β); cited from earlier work,30 nM
[Zn] [Zinc],IC50,GSK-3,15000 nM
same,Effect on CDK1-cyclin B complex,CDK1-cyclin B complex,No effect
c1nc2nc(Nc3ccc(N4CCOCC4)cc3)nc(NC3CCCCC3)c2[nH]1 [reversine],effect on committed myoblast,[7],de-differentiate
Aloisine B,IC50,GSK-3,750 nM
same,IC50,CDK1-cyclin B complex,850 nM
CHIR98014,IC50,GSK-3α,0.65 nM
same,IC50,[6],0.58 nM
same,IC50,CDK1-cyclin B complex,3700 nM
